Data taken from patent US12583858B2 (Genentech, Inc., priority 2015, dated 2026).

Molecular target: T1, TDO2 (Homo sapiens, UniProt P48775)
T1 construct: decreased levels of NFK in SW48 cells (high TDO expressing cells)
Assay: TDO2 cell assay (NFK GreenScreen, SW48 cells)
Type: cell-based
Settings: SW48 cells (high TDO expressing), 200 uM tryptophan, 24 hours; Table 3; read-out: TDO2 Cell Fluor EC50
Method: The NFK GreenScreen™ (NTRC, Netherlands) uses a specific chemical probe that binds to N-Formylkynurenine (NFK), a product of tryptophan catabolism facilitated by IDO or TDO and causes fluorescence at 510 nm when excited at 410 nm. […] The assay is multiplexed with Cell Titer-Glo® (Promega) to determine if compounds are cytotoxic. […] Cells are counted on a Vi-Cell (Beckman Coulter). SW48 cells are diluted to 1×10^6 cells/ml in assay media. A172 cells are diluted to 0.24×10^6 cells/ml in assay media. […] 5 ul of assay media containing 1.2 mM tryptophan are added to the SW48 cells for a final concentration of 200 uM tryptophan in each well. 5 ul of assay media containing 600 uM tryptophan and 600 ng/ml IFNγ are added to the A172 cells for a final concentration of 100 uM tryptophan and 100 ng/ml IFNγ in each well. The final DMSO concentration is 0.5%. Cell plates are placed at room temperature in a closed TC hood with the blower off to allow cells to settle for approximately 30 min. Plates are then moved to an incubator set at 37° C., 5% CO2 for 24 hours. After the 24 hour compound incubation, 8 ul of NFK green reagent is added to each well with a Multidrop™ Combi dispenser (Thermo Scientific). Plates are sealed and incubated at 37° C., 5% CO2 for 5 hours, then read on a PHERAstar® (BMG labtech). Data are analyzed by normalizing to DMSO and high inhibitor controls. After the plates have been read for NFK green, 25 ul of Cell Titer-Glo® (Promega) are added to each well, incubated for 15 minutes at room temperature, and read on the Envision (Perkin Elmer). Cell Titer-Glo data are analyzed by normalizing to the DMSO controls. Four-parameter curve fitting is used and EC50 data are reported.

T1 sequence (P48775 whole entry): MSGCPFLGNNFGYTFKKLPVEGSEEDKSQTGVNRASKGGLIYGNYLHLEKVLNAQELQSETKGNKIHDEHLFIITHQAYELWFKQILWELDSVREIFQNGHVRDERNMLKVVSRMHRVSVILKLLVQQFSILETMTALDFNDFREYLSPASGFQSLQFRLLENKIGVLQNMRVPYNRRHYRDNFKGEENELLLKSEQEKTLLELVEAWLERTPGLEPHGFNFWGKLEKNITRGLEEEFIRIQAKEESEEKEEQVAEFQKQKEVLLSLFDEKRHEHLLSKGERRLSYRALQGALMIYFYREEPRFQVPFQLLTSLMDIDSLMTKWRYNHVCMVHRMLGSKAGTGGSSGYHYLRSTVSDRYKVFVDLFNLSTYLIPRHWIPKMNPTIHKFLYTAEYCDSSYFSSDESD

Row | Structure (SMILES) | EC50 [µM]
1 | O[C@H]1c2ccnn2CC[C@@H]1[C@@H]1c2ccccc2-c2cncn21 [Example 56d, (4R,5R)-5-((R)-5H-imidazo[5,1-a]isoindol-5-yl)-4,5,6,7-tetrahydropyrazolo[1,5-a]pyridin-4-ol] | > 25
2 | O[C@H]1c2ccnn2CC[C@H]1[C@H]1c2ccccc2-c2cncn21 [Example 56e, (4R,5S)-5-((S)-5H-imidazo[5,1-a]isoindol-5-yl)-4,5,6,7-tetrahydropyrazolo[1,5-a]pyridin-4-ol] | 0.76
3 | O[C@@H]1[C@@H]([C@H]2c3ccccc3-c3cncn32)CC12CCOCC2 [Example 57a, (1R,2R)-2-((S)-5H-imidazo[5,1-a]isoindol-5-yl)-7-oxaspiro[3.5]nonan-1-ol] | 11
4 | Cc1cc2c(cn1)[C@@H](O)[C@@H]([C@H]1c3ccccc3-c3cncn31)C2 [Example 59a, (6R,7S)-6-((S)-5H-imidazo[5,1-a]isoindol-5-yl)-3-methyl-6,7-dihydro-5H-cyclopenta[c]pyridin-7-ol] | 0.95
5 | Cc1cc2c(cn1)[C@H](O)[C@H]([C@@H]1c3ccccc3-c3cncn31)C2 [Example 59b, (6S,7R)-6-((R)-5H-imidazo[5,1-a]isoindol-5-yl)-3-methyl-6,7-dihydro-5H-cyclopenta[c]pyridin-7-ol] | 0.82
6 | NC(=O)c1ccc2c(c1)CC[C@@H]([C@H]1c3ccccc3-c3cncn31)[C@H]2O [Example 60f, (5R,6S)-5-hydroxy-6-((S)-5H-imidazo[5,1-a]isoindol-5-yl)-5,6,7,8-tetrahydronaphthalene-2-carboxamide] | 0.057
7 | O[C@@H]1c2ncccc2CC[C@H]1[C@H]1c2ccccc2-c2cncn21 [Example 63a, (7S,8S)-7-((S)-5H-imidazo[5,1-a]isoindol-5-yl)-5,6,7,8-tetrahydroquinolin-8-ol] | 0.061
8 | O[C@H]1c2ncccc2CC[C@H]1[C@H]1c2ccccc2-c2cncn21 [Example 63c, (7S,8R)-7-((S)-5H-imidazo[5,1-a]isoindol-5-yl)-5,6,7,8-tetrahydroquinolin-8-ol] | 20
9 | CS(=O)(=O)N1CC[C@@H]([C@@H]2c3ccccc3-c3cncn32)[C@H](O)C1 [Example 64a, (3S,4S)-4-((R)-5H-imidazo[5,1-a]isoindol-5-yl)-1-(methylsulfonyl)piperidin-3-ol] | > 25
10 | CS(=O)(=O)N1CCC(C2c3ccccc3-c3cncn32)C(O)C1 [Example 64c, (3R,4R)-4-((R)-5H-imidazo[5,1-a]isoindol-5-yl)-1-(methylsulfonyl)piperidin-3-ol] | > 25
11 | CC1(C)COC[C@@H]([C@H]2c3ccccc3-c3cncn32)[C@H]1O [Example 66a, (4R,5R)-5-((S)-5H-imidazo[5,1-a]isoindol-5-yl)-3,3-dimethyltetrahydro-2H-pyran-4-ol] | > 25
12 | O[C@H]1[C@@H]([C@@H]2c3ccccc3-c3cncn32)CCC12CCOCC2 [Example 68a, (1S,2R)-2-((R)-5H-imidazo[5,1-a]isoindol-5-yl)-8-oxaspiro[4.5]decan-1-ol] | 6.8
13 | CNS(=O)(=O)N1CC[C@H]([C@H]2c3ccccc3-c3cncn32)[C@@H](O)C1 [Example 74a, (3R,4R)-3-hydroxy-4-((S)-5H-imidazo[5,1-a]isoindol-5-yl)-N-methylpiperidine-1-sulfonamide] | 4
14 | CNS(=O)(=O)N1CC[C@@H]([C@H]2c3ccccc3-c3cncn32)[C@H](O)C1 [Example 74b, (3S,4S)-3-hydroxy-4-((S)-5H-imidazo[5,1-a]isoindol-5-yl)-N-methylpiperidine-1-sulfonamide] | 0.11
15 | CN(C)S(=O)(=O)N1CC[C@H]([C@H]2c3ccccc3-c3cncn32)[C@@H](O)C1 [Example 78a] | 4.5
16 | CN(C)S(=O)(=O)N1CC[C@@H]([C@H]2c3ccccc3-c3cncn32)[C@H](O)C1 [Example 78b] | 0.16
17 | O[C@H]1CN(CC(F)(F)F)CC[C@@H]1[C@H]1c2ccccc2-c2cncn21 [Example 82a, (3R,4R)-4-((S)-5H-imidazo[5,1-a]isoindol-5-yl)-1-(2,2,2-trifluoroethyl)piperidin-3-ol] | 4.4
18 | O[C@@H]1CN(CC(F)(F)F)CC[C@H]1[C@H]1c2ccccc2-c2cncn21 [Example 82b, (3S,4S)-4-((S)-5H-imidazo[5,1-a]isoindol-5-yl)-1-(2,2,2-trifluoroethyl)piperidin-3-ol] | 0.33
19 | CN1CC[C@H]([C@H]2c3ccccc3-c3cncn32)[C@@H](O)C1 [Example 83a, (3R,4R)-4-[(5S)-5H-imidazo[4,3-a]isoindol-5-yl]-1-methylpiperidin-3-ol] | > 25
20 | CN1CC[C@@H]([C@H]2c3ccccc3-c3cncn32)[C@H](O)C1 [Example 83b, (3S,4S)-4-((S)-5H-imidazo[5,1-a]isoindol-5-yl)-1-methylpiperidin-3-ol] | 1.4
21 | O[C@@H]1CC2(COC2)[C@H]1[C@@H]1c2ccccc2-c2cncn21 [Example 87b, (5S,6R)-5-((R)-5H-imidazo[5,1-a]isoindol-5-yl)-2-oxaspiro[3.3]heptan-6-ol] | 0.3
22 | O[C@@H]1c2ccccc2CC[C@H]1[C@H]1c2ccccc2-c2cncn21 [Example 102e, (1S,2S)-2-((S)-5H-imidazo[5,1-a]isoindol-5-yl)-1,2,3,4-tetrahydronaphthalen-1-ol] | 0.032

Row | Structure (SMILES) | EC50 [µM]
23 | O[C@H]1c2ccccc2CC[C@@H]1[C@@H]1c2ccccc2-c2cncn21 [Example 102f, (1R,2R)-2-((R)-5H-imidazo[5,1-a]isoindol-5-yl)-1,2,3,4-tetrahydronaphthalen-1-ol] | 5.4
24 | O[C@@H]1CN(C2COC2)CC[C@H]1[C@H]1c2ccccc2-c2cncn21 [Example 103, (3S,4S)-4-((S)-5H-imidazo[5,1-a]isoindol-5-yl)-1-(oxetan-3-yl)piperidin-3-ol] | 12
25 | N#Cc1ccc2c(c1)[C@H](O)[C@@H]([C@@H]1c3ccccc3-c3cncn31)CC2 [Example 113a, (7R,8R)-8-hydroxy-7-((R)-5H-imidazo[5,1-a]isoindol-5-yl)-5,6,7,8-tetrahydronaphthalene-2-carbonitrile] | 1
26 | CCS(=O)(=O)N1CCC2(CC1)C[C@@H]([C@@H]1c3ccccc3-c3cncn31)[C@@H]2O [Example 114b, (1S,2S)-7-(ethylsulfonyl)-2-((R)-5H-imidazo[5,1-a]isoindol-5-yl)-7-azaspiro[3.5]nonan-1-ol] | > 25
27 | O[C@@H]1COCC[C@H]1[C@H]1c2c(F)cccc2-c2cncn21 [Example 120a, (3S,4S)-4-((S)-6-fluoro-5H-imidazo[5,1-a]isoindol-5-yl)tetrahydro-2H-pyran-3-ol] | > 25
28 | O[C@H]1COCC[C@@H]1[C@@H]1c2c(F)cccc2-c2cncn21 [Example 120b, (3R,4R)-4-((R)-6-fluoro-5H-imidazo[5,1-a]isoindol-5-yl)tetrahydro-2H-pyran-3-ol] | > 25
29 | O[C@H]1c2ncsc2CC[C@@H]1[C@@H]1c2ccccc2-c2cncn21 [Example 125a, (4R,5R)-5-((R)-5H-imidazo[5,1-a]isoindol-5-yl)-4,5,6,7-tetrahydrobenzo[d]thiazol-4-ol] | > 25
30 | O[C@@H]1c2ncsc2CC[C@H]1[C@H]1c2ccccc2-c2cncn21 [Example 125b, (4S,5S)-5-((S)-5H-imidazo[5,1-a]isoindol-5-yl)-4,5,6,7-tetrahydrobenzo[d]thiazol-4-ol] | 0.067
31 | CS(=O)(=O)N1CCC[C@](O)([C@@H]2c3ccccc3-c3cncn32)C1 [Example 134a, (R)-3-((S)-5H-imidazo[5,1-a]isoindol-5-yl)-1-(methylsulfonyl)piperidin-3-ol] | 1.1
32 | CC(C)[C@@H](O)[C@H]1c2ccc(F)cc2-c2cncn21 [Example 135b, (R)-1-((R)-8-fluoro-5H-imidazo[5,1-a]isoindol-5-yl)-2-methylpropan-1-ol] | > 25
33 | O[C@@H]1c2cccn2CC[C@@H]1[C@@H]1c2ccccc2-c2cncn21 [Example 136b, (7R,8S)-7-((R)-5H-imidazo[5,1-a]isoindol-5-yl)-5,6,7,8-tetrahydroindolizin-8-ol] | > 25
34 | CC[C@H](O)[C@@H]1c2ccccc2-c2cncn21 [Example 137b, (S)-1-((S)-5H-imidazo[5,1-a]isoindol-5-yl)propan-1-ol] | 7.9
35 | O[C@H](C1CCOCC1)[C@@H]1c2ccccc2-c2cncn21 [Example 138a, (R)—((S)-5H-imidazo[5,1-a]isoindol-5-yl)(tetrahydro-2H-pyran-4-yl)methanol] | 9.7
36 | O[C@H](C1CCCCC1)[C@@H]1c2ccccc2-c2cncn21 [Example 148a, (R)-cyclohexyl((S)-5H-imidazo[5,1-a]isoindol-5-yl)methanol] | 14
37 | O[C@@H](C1CCCCC1)[C@H]1c2ccccc2-c2cncn21 [Example 148b, (S)-cyclohexyl((R)-5H-imidazo[5,1-a]isoindol-5-yl)methanol] | 16
38 | O[C@@H]1CC(CF)(CF)[C@@H]1[C@H]1c2ccccc2-c2cncn21 [Example 150a, (1R,2R)-3,3-bis(fluoromethyl)-2-((S)-5H-imidazo[5,1-a]isoindol-5-yl)cyclobutan-1-ol] | 12
39 | O[C@H]1CC(CF)(CF)[C@H]1[C@@H]1c2ccccc2-c2cncn21 [Example 150c, (1S,2S)-3,3-bis(fluoromethyl)-2-((R)-5H-imidazo[5,1-a]isoindol-5-yl)cyclobutan-1-ol] | 0.11
40 | O[C@@H]1c2c(F)cnn2CC[C@@H]1[C@@H]1c2ccccc2-c2cncn21 [Example 151a, (4S,5R)-3-fluoro-5-((R)-5H-imidazo[5,1-a]isoindol-5-yl)-4,5,6,7-tetrahydropyrazolo[1,5-a]pyridin-4-ol] | 0.52
41 | CC(C)(C(N)=O)[C@@H](O)[C@H]1c2ccccc2-c2cncn21 [Example 155a, (R)-3-hydroxy-3-((R)-5H-imidazo[5,1-a]isoindol-5-yl)-2,2-dimethylpropanamide] | 0.33
42 | O[C@H]1c2[nH]ncc2CC[C@H]1[C@H]1c2ccccc2-c2cncn21 [Example 157d, (6S,7R)-6-((S)-5H-imidazo[5,1-a]isoindol-5-yl)-4,5,6,7-tetrahydro-1H-indazol-7-ol] | 23
43 | OC1CC(C2c3ccccc3-c3cncn32)C1O (stereo not shown) [Example 158a, 3-(5H-imidazo[5,1-a]isoindol-5-yl)cyclobutane-1,2-diol] | 7.9
